Assay results as given in patent US9951065B2 (Gilead Sciences, Inc., priority 2015, dated 2018).
pEC50: −log10 of the molar value.

Target: T1, IDO1 (Homo sapiens, UniProt P14902)
T1 construct: HeLa cells were treated with a test compound in the presence of IFNγ, which induces IDO1 expression; host or cells: H1-HeLa cells, IDO1 induced with IFNγ
Assay: Cell-based (HeLa) assay for measurement of IDO1 inhibition (kynurenine levels in supernatant after IFNγ induction)
Conditions: HeLa cells, IFNγ-induced IDO1, kynurenine in supernatant after 48 hour incubation; geometric mean of a minimum of four determinations
In short: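 IDO1 activity is read as kynurenine released into the medium, detected with Ehrlich's reagent (p-dimethylaminobenzaldehyde) at 480 nm after TCA treatment. HeLa cells were exposed 48 h to compounds in 0.5% DMSO alongside IFNγ induction. Values normalized to no-IFNγ and IFNγ controls; four-parameter EC50 given as geometric mean of ≥4 determinations.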

T1 sequence (P14902 whole entry): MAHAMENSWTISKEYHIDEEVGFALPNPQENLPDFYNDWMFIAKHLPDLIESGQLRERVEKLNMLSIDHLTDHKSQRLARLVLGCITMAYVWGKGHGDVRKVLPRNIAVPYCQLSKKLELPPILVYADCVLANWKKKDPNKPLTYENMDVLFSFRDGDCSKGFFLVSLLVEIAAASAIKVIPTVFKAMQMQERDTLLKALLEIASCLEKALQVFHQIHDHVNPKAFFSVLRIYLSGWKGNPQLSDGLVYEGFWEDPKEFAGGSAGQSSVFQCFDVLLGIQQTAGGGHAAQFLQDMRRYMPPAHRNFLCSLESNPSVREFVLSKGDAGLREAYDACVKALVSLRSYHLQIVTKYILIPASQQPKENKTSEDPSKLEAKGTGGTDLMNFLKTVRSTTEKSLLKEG

Structure (SMILES)	pEC50
O/N=C(\Nc1ccc(F)c(Cl)c1)c1ccnc2nc(N3CC[C@H](O)C3)[nH]c12 [Example 280, (S)—N-(3-chloro-4-fluorophenyl)-N′-hydroxy-2-(3-hydroxypyrrolidin-1-yl)-1H-imidazo[4,5-b]pyridine-7-carboximidamide]	< 5.00
COCCN1CCC(Nc2nc3nccc(/C(=N/O)Nc4ccc(F)c(Cl)c4)c3[nH]2)C1 (stereo not drawn) [Example 281, N-(3-chloro-4-fluorophenyl)-N′-hydroxy-2-((1-(2-methoxyethyl)pyrrolidin-3-yl)amino)-1H-imidazo[4,5-b]pyridine-7-carboximidamide]	5.90
CCNCCc1nc2nccc(/C(=N/O)Nc3ccc(F)c(Cl)c3)c2[nH]1 [Example 204, N-(3-chloro-4-fluorophenyl)-2-(2-(ethylamino)ethyl)-N′-hydroxy-3H-imidazo[4,5-b]pyridine-7-carboximidamide]	5.66
Nc1nc2c(F)ccc(/C(=N/O)Nc3ccc(F)c(Br)c3)c2[nH]1 [Example 19, 2-Amino-N-(3-bromo-4-fluorophenyl)-4-fluoro-N′-hydroxy-1H-benzo[d]imidazole-7-carboximidamide]	6.34
O/N=C(\Nc1ccc(F)c(Cl)c1)c1ccnc2nc(NC3CCOCC3)[nH]c12 [Example 228, N-(3-chloro-4-fluorophenyl)-N′-hydroxy-2-((tetrahydro-2H-pyran-4-yl)amino)-1H-imidazo[4,5-b]pyridine-7-carboximidamide]	5.67
O/N=C(\Nc1ccc(F)c(Cl)c1)c1ccnc2nc(CNCCc3ncccn3)[nH]c12 [Example 137, N-(3-Chloro-4-fluorophenyl)-N′-hydroxy-2-(((2-(pyrimidin-2-yl)ethyl)amino)methyl)-1H-imidazo[4,5-b]pyridine-7-carboximidamide]	5.13
CC(C)OC(=O)Nc1nc2nccc(/C(=N/O)Nc3ccc(F)c(Cl)c3)c2[nH]1 [Example 159, Isopropyl (7-(N-(3-chloro-4-fluorophenyl)-N′-hydroxycarbamimidoyl)-1H-imidazo[4,5-b]pyridin-2-yl)carbamate]	6.34
CCNCc1nc2c(F)c(F)cc(/C(=N/O)Nc3cccc(Cl)c3)c2[nH]1 [Example 28, N-(3-Chlorophenyl)-2-((ethylamino)methyl)-4,5-difluoro-N′-hydroxy-1H-benzo[d]imidazole-7-carboximidamide]	6.10
CN1CCCCC1CNc1nc2nccc(/C(=N/O)Nc3ccc(F)c(Cl)c3)c2[nH]1 (stereo not drawn) [Example 202, N-(3-Chloro-4-fluorophenyl)-N′-hydroxy-2-[(1-methylpiperidin-2-yl)methylamino]-1H-imidazo[4,5-b]pyridine-7-carboximidamide]	5.68
O/N=C(\Nc1cc(Cl)c(F)cc1F)c1ccnc2nc[nH]c12 [Example 62, N-(5-Chloro-2,4-difluorophenyl)-N′-hydroxy-1H-imidazo[4,5-b]pyridine-7-carboximidamide]	6.41
COc1ccccc1CNCc1nc2nccc(/C(=N/O)Nc3ccc(F)c(Cl)c3)c2[nH]1 [Example 123, N-(3-Chloro-4-fluorophenyl)-N′-hydroxy-2-(((2-methoxybenzyl)amino)methyl)-1H-imidazo[4,5-b]pyridine-7-carboximidamide]	5.72
O/N=C(\Nc1ccc(F)c(Cl)c1)c1ccnc2nc(C3CC3)[nH]c12 [Example 109, N-(3-Chloro-4-fluorophenyl)-2-cyclopropyl-N′-hydroxy-1H-imidazo[4,5-b]pyridine-7-carboximidamide]	5.86
O/N=C(\Nc1ccc(F)c(C2CC2)c1)c1ccnc2nc[nH]c12 [Example 65, N-(3-Cyclopropyl-4-fluorophenyl)-N′-hydroxy-1H-imidazo[4,5-b]pyridine-7-carboximidamide]	5.74
O/N=C(\Nc1cc(Cl)ccc1F)c1ccnc2nc[nH]c12 [Example 60, N-(5-Chloro-2-fluorophenyl)-N′-hydroxy-1H-imidazo[4,5-b]pyridine-7-carboximidamide]	6.49
O/N=C(\Nc1cc(F)cc(Br)c1)c1ccnc2nc[nH]c12 [Example 72, N-(3-Bromo-5-fluorophenyl)-N′-hydroxy-1H-imidazo[4,5-b]pyridine-7-carboximidamide]	6.55
NC1=NCCN1CCc1nc2nccc(/C(=N/O)Nc3ccc(F)c(Cl)c3)c2[nH]1 [Example 209, 2-(2-(2-amino-4,5-dihydro-1H-imidazol-1-yl)ethyl)-N-(3-chloro-4-fluorophenyl)-N′-hydroxy-1H-imidazo[4,5-b]pyridine-7-carboximidamide]	5.30
CC(C)CNCCc1nc2nccc(/C(=N/O)Nc3ccc(F)c(Cl)c3)c2[nH]1 [Example 206, N-(3-chloro-4-fluorophenyl)-N′-hydroxy-2-(2-(isobutylamino)ethyl)-3H-imidazo[4,5-b]pyridine-7-carboximidamide]	5.64
O/N=C(\Nc1ccc(Cl)cc1)c1ccnc2nc[nH]c12 [Example 87, N-(4-Chlorophenyl)-N′-hydroxy-1H-imidazo[4,5-b]pyridine-7-carboximidamide]	6.07
NC1(CCNc2nc3nccc(/C(=N/O)Nc4ccc(F)c(Cl)c4)c3[nH]2)CC1 [Example 242, 2-((2-(1-aminocyclopropyl)ethyl)amino)-N-(3-chloro-4-fluorophenyl)-N′-hydroxy-1H-imidazo[4,5-b]pyridine-7-carboximidamide]	5.79
C#Cc1cccc(N/C(=N\O)c2ccnc3nc[nH]c23)c1 [Example 95, N-(3-ethynylphenyl)-N′-hydroxy-1H-imidazo[4,5-b]pyridine-7-carboximidamide]	6.52
CCN(CC)CCNc1nc2c(F)c(F)cc(/C(=N/O)Nc3ccc(F)c(Cl)c3)c2[nH]1 [Example 42, N-(3-Chloro-4-fluorophenyl)-2-((2-(diethylamino)ethyl)amino)-4,5-difluoro-N′-hydroxy-1H-benzo[d]imidazole-7-carboximidamide]	6.61
OCCNc1nc2c(F)c(F)cc(/C(=N/O)Nc3ccc(F)c(Cl)c3)c2[nH]1 [Example 295, N-(3-chloro-4-fluorophenyl)-4,5-difluoro-N′-hydroxy-2-((2-hydroxyethyl)amino)-1H-benzo[d]imidazole-7-carboximidamide]	5.49
O/N=C(\Nc1cccc(OC(F)(F)F)c1)c1ccnc2nc[nH]c12 [Example 99, N′-Hydroxy-N-(3-(trifluoromethoxy)phenyl)-1H-imidazo[4,5-b]pyridine-7-carboximidamide]	6.22
O/N=C(\Nc1ccc(F)c(Cl)c1)c1ccnc2nc(CCN3CC4CCC(C4)C3)[nH]c12 [Example 277, 2-(2-(3-azabicyclo[3.2.1]octan-3-yl)ethyl)-N-(3-chloro-4-fluorophenyl)-N′-hydroxy-1H-imidazo[4,5-b]pyridine-7-carboximidamide]	6.24

Same assay, conditions: HeLa cells, IFNγ-induced IDO1, kynurenine in supernatant, 48 hour incubation; geometric mean of a minimum of four determinations

Structure (SMILES)	pEC50
O/N=C(\Nc1ccc(F)c(Cl)c1)c1cc(F)c(F)c2nc(N[C@H]3CCCNC3)[nH]c12 [Example 445, (S)—N-(3-chloro-4-fluorophenyl)-4,5-difluoro-N′-hydroxy-2-(piperidin-3-ylamino)-1H-benzo[d]imidazole-7-carboximidamide]	5.71
CN(C)CCCNc1nc2c(F)c(F)cc(/C(=N/O)Nc3ccc(F)c(Br)c3)c2[nH]1 [Example 387, N-(3-bromo-4-fluorophenyl)-2-((3-(dimethylamino)propyl)amino)-4,5-difluoro-N′-hydroxy-1H-benzo[d]imidazole-7-carboximidamide]	6.16
CNCCNc1nc2c(F)c(F)cc(/C(=N/O)Nc3ccc(F)c(Cl)c3)c2[nH]1 [Example 395, N-(3-chloro-4-fluorophenyl)-4,5-difluoro-N′-hydroxy-2-((2-(methylamino)ethyl)amino)-1H-benzo[d]imidazole-7-carboximidamide]	6.12
CN(C)CCCNc1nc2c(F)ccc(/C(=N/O)Nc3ccc(F)c(Cl)c3)c2[nH]1 [Example 388, N-(3-chloro-4-fluorophenyl)-2-((3-(dimethylamino)propyl)amino)-4-fluoro-N′-hydroxy-1H-benzo[d]imidazole-7-carboximidamide]	6.03
CN(C)C1CCCC1Nc1nc2c(F)c(F)cc(/C(=N/O)Nc3ccc(F)c(Cl)c3)c2[nH]1 (stereo not drawn) [Example 461, N-(3-chloro-4-fluorophenyl)-2-((2-(dimethylamino)cyclopentyl)amino)-4,5-difluoro-N′-hydroxy-1H-benzo[d]imidazole-7-carboximidamide]	6.33
CC(C)N1CCCC(Nc2nc3c(F)c(F)cc(C(=NO)Nc4ccc(F)c(Cl)c4)c3[nH]2)C1 (stereo not drawn) [Example 455, N-(3-chloro-4-fluorophenyl)-4,5-difluoro-N′-hydroxy-2-((1-isopropylpiperidin-3-yl)amino)-1H-benzo[d]imidazole-7-carboximidamide]	6.42
CN1CCCCC1CCNc1nc2c(F)c(F)cc(/C(=N/O)Nc3ccc(F)c(Cl)c3)c2[nH]1 (stereo not drawn) [Example 355, N-(3-chloro-4-fluorophenyl)-4,5-difluoro-N′-hydroxy-2-((2-(1-methylpiperidin-2-yl)ethyl)amino)-1H-benzo[d]imidazole-7-carboximidamide]	5.69
CO[C@@H]1CN(C)C[C@H]1Nc1nc2c(F)c(F)cc(/C(=N/O)Nc3ccc(F)c(Cl)c3)c2[nH]1 [Example 458, N-(3-chloro-4-fluorophenyl)-4,5-difluoro-N′-hydroxy-2-(((3R,4R)-4-methoxy-1-methylpyrrolidin-3-yl)amino)-1H-benzo[d]imidazole-7-carboximidamide]	6.58
O/N=C(\Nc1ccc(F)c(Cl)c1)c1cc(F)c(F)c2nc(N[C@@H]3CCCCNC3)[nH]c12 [Example 463, (R)-2-(azepan-3-ylamino)-N-(3-chloro-4-fluorophenyl)-4,5-difluoro-N′-hydroxy-1H-benzo[d]imidazole-7-carboximidamide]	5.99
